From patent publication US11098027B2, “Therapeutic heterocyclic compounds” (Gilead Sciences, Inc., priority 2018, dated 2021) come the findings set out here.

Structures are written as SMILES.

The assay concerns the target T1, IDO1 (Homo sapiens, UniProt P14902).
T1 construct: HeLa cells were treated with a test compound in the presence of IFNγ, which induces IDO1 expression; host or cells: H1-HeLa cells, IDO1 induced with IFNγ
Nature of the assay: Cell-based (HeLa) assay for measurement of IDO1 inhibition (kynurenine levels in supernatant). The following applies: H1-HeLa cells, IDO1 induced with IFNγ, 48 hour incubation, kynurenine read by absorbance at 480 nm; geometric mean of a minimum of four determinations. As to the method: Example B-1. Cell-Based (HeLa) Assay for Measurement of IDO1 Inhibition
To measure IDO1 inhibition in tissue culture, HeLa cells were treated with a test compound in the presence of IFNγ, which induces IDO1 expression. Following incubation, cell supernatants were assayed for kynurenine levels, an indicator of IDO1 activity.
The following day, the test compounds were added in DMSO (0.5% final) at various concentrations, and IDO1 was inducibly expressed by the addition of 50 uL/well of 50 ng/mL of INFγ (Peprotech #300-02) in cell plating media. As a positive control, 50 uL of the cell plating media without IFNγ was added to several wells. Following a 48 hour incubation, the plates were spun down at 1,200 RPM for 5 min at 10° C. 65 μL/well of the supernatant was then transferred to new 384-well plates (Thermo #262160) that contained 10 uL/well of 30% TCA (Sigma # TO699), and the plates were sealed and incubated at 60° C. for 30 min. The plates were then centrifuged for 15 min at 2,000 RPM at 10° C. 40 μL/well of the supernatant was transferred to new 384-well plates (Thermo #262160) and was reacted with 40 μL/well of 2% (w/v) p-dimethlyaminobenzaldehyde (Sigma #156417) in glacial acetic acid (Sigma #A6283). The reaction was incubated at room temperature for 10 min and absorbance at 480 nm was read using a PerkinElmer Envision plate reader.
Data in Table 1 were normalized based on positive (−IFNγ) and negative (+IFNγ) controls and EC50 values were calculated from the fit of the dose—response curves to a four-parameter equation. All EC50 values represent geometric mean values of a minimum of four determinations. These assays generally produced results within 2-fold of the reported mean

T1 sequence (P14902 whole entry): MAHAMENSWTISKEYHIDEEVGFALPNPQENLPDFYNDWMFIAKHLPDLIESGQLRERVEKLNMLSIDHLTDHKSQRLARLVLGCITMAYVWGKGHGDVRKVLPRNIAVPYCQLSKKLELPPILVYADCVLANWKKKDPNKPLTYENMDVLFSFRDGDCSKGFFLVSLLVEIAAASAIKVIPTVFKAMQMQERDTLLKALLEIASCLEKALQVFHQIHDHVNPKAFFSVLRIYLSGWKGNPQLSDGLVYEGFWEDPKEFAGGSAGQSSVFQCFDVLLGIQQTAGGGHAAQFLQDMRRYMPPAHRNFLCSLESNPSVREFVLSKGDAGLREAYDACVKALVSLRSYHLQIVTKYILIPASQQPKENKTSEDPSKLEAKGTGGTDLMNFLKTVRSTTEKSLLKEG

In the case of `CC1(C)C(=O)N(c2ccncn2)c2cccc(-c3cnc(C(F)(F)F)c(C(=O)Nc4ccc(F)cc4)c3)c21` [Example 49, 5-(3,3-dimethyl-2-oxo-1-(pyrimidin-4-yl)indolin-4-yl)-N-(4-fluorophenyl)-2-(trifluoromethyl)nicotinamide], the response was half-maximal at 33 nM (EC50).

A word on the EC50: it is the midpoint of the concentration-response curve. Read a low EC50 as higher potency in that assay.
